Measurements taken from PubChem BioAssay (NCI).
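Test compounds were applied to cells in 96-well plates for 48 hours at 5 doses. TGI marks complete inhibition of growth.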

Columns and labels:
Experiment in all cases: NCI anticancer screen, dose series, 48 h
CCRF-CEM leukemia = system: CCRF-CEM leukemia
NCI-H522 lung = system: NCI-H522 lung
OVCAR-3 ovarian = system: OVCAR-3 ovarian
SNB-19 CNS = system: SNB-19 CNS
SNB-78 CNS = system: SNB-78 CNS
SW-620 colon = system: SW-620 colon
HL-60(TB) leukemia = system: HL-60(TB) leukemia
RPMI-8226 leukemia = system: RPMI-8226 leukemia
SK-MEL-2 melanoma = system: SK-MEL-2 melanoma
786-0 renal = system: 786-0 renal
UACC-257 melanoma = system: UACC-257 melanoma
U251 CNS = system: U251 CNS
KM12 colon = system: KM12 colon
NCI-H23 lung = system: NCI-H23 lung
ACHN renal = system: ACHN renal
K-562 leukemia = system: K-562 leukemia
XF 498 CNS = system: XF 498 CNS
RXF 393 renal = system: RXF 393 renal
SK-OV-3 ovarian = system: SK-OV-3 ovarian
SK-MEL-5 melanoma = system: SK-MEL-5 melanoma
OVCAR-8 ovarian = system: OVCAR-8 ovarian
HCC-2998 colon = system: HCC-2998 colon
NCI-H460 lung = system: NCI-H460 lung
UACC-62 melanoma = system: UACC-62 melanoma
DMS 273 small cell lung = system: DMS 273 small cell lung
TK-10 renal = system: TK-10 renal
HOP-92 NSCLC = system: HOP-92 NSCLC
SR leukemia = system: SR leukemia
HCT-116 colon = system: HCT-116 colon
OVCAR-5 ovarian = system: OVCAR-5 ovarian
LOX IMVI melanoma = system: LOX IMVI melanoma
SF-268 CNS = system: SF-268 CNS
SN12C renal = system: SN12C renal
HOP-18 NSCLC = system: HOP-18 NSCLC
A549 NSCLC = system: A549 NSCLC
UO-31 renal = system: UO-31 renal
HOP-62 NSCLC = system: HOP-62 NSCLC
HT29 colon = system: HT29 colon
MOLT-4 leukemia = system: MOLT-4 leukemia
A498 renal = system: A498 renal
SF-295 CNS = system: SF-295 CNS
EKVX NSCLC = system: EKVX NSCLC
CAKI-1 renal = system: CAKI-1 renal
SK-MEL-28 melanoma = system: SK-MEL-28 melanoma
DLD-1 colon = system: DLD-1 colon
HCT-15 colon = system: HCT-15 colon
COLO 205 colon = system: COLO 205 colon
M19-MEL melanoma = system: M19-MEL melanoma
LXFL 529 NSCLC = system: LXFL 529 NSCLC
MALME-3M melanoma = system: MALME-3M melanoma
SF-539 CNS = system: SF-539 CNS
DMS 114 small cell lung = system: DMS 114 small cell lung
IGROV1 ovarian = system: IGROV1 ovarian
SNB-75 CNS = system: SNB-75 CNS
M14 melanoma = system: M14 melanoma
OVCAR-4 ovarian = system: OVCAR-4 ovarian
NCI-H226 lung = system: NCI-H226 lung
KM20L2 colon = system: KM20L2 colon

COc1cc2c(cc1OC)C(Cc1ccc(Oc3cc(CC4c5cc(OC)c(OC)cc5CCN4C)ccc3O)cc1)N(C)CC2 (stereo unspecified)
TGI (CCRF-CEM leukemia): 58.4 µM | TGI (NCI-H522 lung): 25 µM | TGI (OVCAR-3 ovarian): 50.1 µM | TGI (SNB-19 CNS): > 100 µM | TGI (SNB-78 CNS): > 100 µM | TGI (SW-620 colon): 35.5 µM | TGI (HL-60(TB) leukemia): 30.4 µM | TGI (RPMI-8226 leukemia): 51.4 µM | TGI (SK-MEL-2 melanoma): 31 µM | TGI (786-0 renal): 27.1 µM | TGI (UACC-257 melanoma): 32 µM | TGI (U251 CNS): 38.2 µM | TGI (KM12 colon): 70.7 µM | TGI (NCI-H23 lung): > 100 µM | TGI (ACHN renal): 35.2 µM | TGI (K-562 leukemia): 29.3 µM | TGI (XF 498 CNS): 34.2 µM | TGI (RXF 393 renal): 29.4 µM | TGI (SK-OV-3 ovarian): > 100 µM | TGI (SK-MEL-5 melanoma): 29.1 µM | TGI (OVCAR-8 ovarian): > 100 µM | TGI (HCC-2998 colon): 28.1 µM | TGI (NCI-H460 lung): 80.4 µM | TGI (UACC-62 melanoma): 32.4 µM | TGI (DMS 273 small cell lung): 47.8 µM | TGI (TK-10 renal): > 100 µM | TGI (HOP-92 NSCLC): 55.9 µM | TGI (SR leukemia): 24.1 µM | TGI (HCT-116 colon): 22 µM | TGI (OVCAR-5 ovarian): > 100 µM | TGI (LOX IMVI melanoma): 32.6 µM | TGI (SF-268 CNS): 28.7 µM | TGI (SN12C renal): > 100 µM | TGI (HOP-18 NSCLC): 76.6 µM | TGI (A549 NSCLC): > 100 µM | TGI (UO-31 renal): 28.3 µM | TGI (HOP-62 NSCLC): 57.4 µM | TGI (HT29 colon): 28.9 µM | TGI (MOLT-4 leukemia): 41.5 µM | TGI (A498 renal): 49.1 µM | TGI (SF-295 CNS): 47.1 µM | TGI (EKVX NSCLC): > 100 µM | TGI (CAKI-1 renal): 73.3 µM | TGI (SK-MEL-28 melanoma): 30.2 µM | TGI (DLD-1 colon): 38.7 µM | TGI (HCT-15 colon): 32 µM | TGI (COLO 205 colon): 23.8 µM | TGI (M19-MEL melanoma): 39 µM | TGI (LXFL 529 NSCLC): 28.5 µM | TGI (MALME-3M melanoma): 34.7 µM | TGI (SF-539 CNS): 30.6 µM | TGI (DMS 114 small cell lung): 30.9 µM | TGI (IGROV1 ovarian): 56.5 µM | TGI (SNB-75 CNS): 31.6 µM | TGI (M14 melanoma): 28.7 µM | TGI (OVCAR-4 ovarian): 54.7 µM | TGI (NCI-H226 lung): 57.5 µM | TGI (KM20L2 colon): 34.3 µM

COCCCCCC(=O)CP(=O)(OC)OC
TGI (CCRF-CEM leukemia): > 100 µM | TGI (NCI-H522 lung): > 100 µM | TGI (OVCAR-3 ovarian): > 100 µM | TGI (SNB-19 CNS): > 100 µM | TGI (SNB-78 CNS): > 100 µM | TGI (SW-620 colon): > 100 µM | TGI (HL-60(TB) leukemia): > 100 µM | TGI (RPMI-8226 leukemia): > 100 µM | TGI (SK-MEL-2 melanoma): > 100 µM | TGI (786-0 renal): > 100 µM | TGI (UACC-257 melanoma): > 100 µM | TGI (U251 CNS): > 100 µM | TGI (KM12 colon): > 100 µM | TGI (NCI-H23 lung): > 100 µM | TGI (ACHN renal): > 100 µM | TGI (K-562 leukemia): > 100 µM | TGI (XF 498 CNS): > 100 µM | TGI (RXF 393 renal): > 100 µM | TGI (SK-OV-3 ovarian): > 100 µM | TGI (SK-MEL-5 melanoma): > 100 µM | TGI (OVCAR-8 ovarian): > 100 µM | TGI (HCC-2998 colon): > 100 µM | TGI (NCI-H460 lung): > 100 µM | TGI (UACC-62 melanoma): > 100 µM | TGI (DMS 273 small cell lung): > 100 µM | TGI (TK-10 renal): > 100 µM | TGI (HOP-92 NSCLC): > 100 µM | TGI (SR leukemia): > 100 µM | TGI (HCT-116 colon): > 100 µM | TGI (OVCAR-5 ovarian): > 100 µM | TGI (LOX IMVI melanoma): > 100 µM | TGI (SF-268 CNS): > 100 µM | TGI (SN12C renal): > 100 µM | TGI (HOP-18 NSCLC): > 100 µM | TGI (A549 NSCLC): > 100 µM | TGI (UO-31 renal): > 100 µM | TGI (HOP-62 NSCLC): > 100 µM | TGI (HT29 colon): > 100 µM | TGI (MOLT-4 leukemia): > 100 µM | TGI (A498 renal): > 100 µM | TGI (SF-295 CNS): > 100 µM | TGI (EKVX NSCLC): > 100 µM | TGI (CAKI-1 renal): > 100 µM | TGI (SK-MEL-28 melanoma): > 100 µM | TGI (DLD-1 colon): > 100 µM | TGI (HCT-15 colon): > 100 µM | TGI (COLO 205 colon): > 100 µM | TGI (M19-MEL melanoma): > 100 µM | TGI (LXFL 529 NSCLC): > 100 µM | TGI (MALME-3M melanoma): > 100 µM | TGI (SF-539 CNS): > 100 µM | TGI (DMS 114 small cell lung): > 100 µM | TGI (IGROV1 ovarian): > 100 µM | TGI (SNB-75 CNS): > 100 µM | TGI (M14 melanoma): > 100 µM | TGI (OVCAR-4 ovarian): > 100 µM | TGI (NCI-H226 lung): > 100 µM | TGI (KM20L2 colon): > 100 µM
